Laboratory results: patent publication US11673901B2, “Polycyclic compounds as allosteric SHP2 inhibitors” (Revolution Medicines, Inc., priority 2017, dated 2023)

Each compound was assayed against SHP2 (Homo sapiens (Human), UniProt Q06124) (assay: SHP2 allosteric inhibition assay (DiFMUP prompt fluorescence)). Conditions: 0.2 nM SHP2 activated with 0.5 μM Activating Peptide 1 or 2; substrate DiFMUP; Table 2, class symbols.
Format: biochemical
Description: Without wishing to be bound by theory, SHP2 is allosterically activated through binding of bis-tyrosyl-phosphorylated peptides to its Src Homology 2 (SH2) domains. The latter activation step leads to the release of the auto-inhibitory interface of SHP2, which in turn renders the SHP2 protein tyrosine phosphatase (PTP) active and available for substrate recognition and reaction catalysis. The catalytic activity of SHP2 was monitored using the surrogate substrate DiFMUP in a prompt fluorescence assay format.
The phosphatase reactions were performed at room temperature in 96-well black polystyrene plate, flat bottom, non-binding surface (Corning, Cat #3650) using a final reaction volume of 100 μL and the following assay buffer conditions: 50 mM HEPES, pH 7.2, 100 mM NaCl, 0.5 mM EDTA, 0.05% P-20, 1 mM DTT.
The inhibition of SHP2 by compounds of the invention (concentrations varying from 0.00005-10 μM) was monitored using an assay in which 0.2 nM of SHP2 was incubated with 0.5 μM of Activating Peptide 1 (sequence: H2N-LN(pY)IDLDLV(dPEG8)LST(pY)ASINFQK-amide) or Activating Peptide 2 (sequence: H2N-LN(pY)AQLWHA(dPEG8)LTI(pY)ATIRRF-amide). After 30-60-minutes incubation at 25° C., the surrogate substrate DiFMUP (Invitrogen, Cat #D6567) was added to the reaction and activity was determined by a kinetic read using a microplate reader (Envision, Perkin-Elmer or Spectramax M5, Molecular Devices). The excitation and emission wavelengths were 340 nm and 450 nm, respectively. Initial rates were determined from a linear fit of the data, and the inhibitor dose response curves were analyzed using normalized IC50 regression curve fitting with control based normalization.

Chain of SHP2 (Q06124 whole entry): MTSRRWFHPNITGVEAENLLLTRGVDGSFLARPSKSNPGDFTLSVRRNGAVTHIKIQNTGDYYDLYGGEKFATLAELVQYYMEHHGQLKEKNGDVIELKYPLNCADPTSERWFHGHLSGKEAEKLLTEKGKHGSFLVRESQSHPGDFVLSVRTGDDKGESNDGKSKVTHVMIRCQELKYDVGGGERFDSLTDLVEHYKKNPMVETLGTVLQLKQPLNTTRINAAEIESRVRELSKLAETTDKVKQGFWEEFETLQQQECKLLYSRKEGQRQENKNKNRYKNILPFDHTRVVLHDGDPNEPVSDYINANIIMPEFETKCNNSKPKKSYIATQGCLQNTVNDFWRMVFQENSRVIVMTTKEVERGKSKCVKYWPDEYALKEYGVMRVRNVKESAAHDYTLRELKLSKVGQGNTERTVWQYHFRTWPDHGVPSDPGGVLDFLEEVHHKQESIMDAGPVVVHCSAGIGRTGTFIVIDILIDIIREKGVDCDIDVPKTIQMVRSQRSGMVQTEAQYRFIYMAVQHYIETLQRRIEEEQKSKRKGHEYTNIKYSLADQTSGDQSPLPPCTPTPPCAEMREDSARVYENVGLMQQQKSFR

How did the IC50 turn out when `NCCNc1ncc(Sc2ccnc(N)c2Cl)c2nccn12` [Compound 23, N1-{8-[(2-amino-3-chloropyridin-4-yl)sulfanyl]imidazo[1,2-c]pyrimidin-5-yl}ethane-1,2-diamine] was run?
Its IC50 is greater than 500 nM.

For `NC[C@H]1CCN(c2ncc(Sc3ccnc(N)c3Cl)c3nccn23)C1` [Compound 24, 4-({5-[(3R)-3-(aminomethyl)pyrrolidin-1-yl]imidazo[1,2-c]pyrimidin-8-yl}sulfanyl)-3-chloropyridin-2-amine], which IC50 is on record?
The IC50 was 50 to 500 nM.

Which IC50 does the source give for `Nc1nccc(Sc2cnc(N3C[C@@H]4[C@@H](N)[C@@H]4C3)n3ccnc23)c1Cl` [Compound 25, (1R,5S,6R)-3-{8-[(2-amino-3-chloropyridin-4-yl)sulfanyl]imidazo[1,2-c]pyrimidin-5-yl}-3-azabicyclo[3.1.0]hexan-6-amine] here?
The IC50 was 50 to 500 nM.

`CC1(N)CN(c2ncc(Sc3ccnc(N)c3Cl)c3nccn23)C1` [Compound 26, 4-{[5-(3-amino-3-methylazetidin-1-yl)imidazo[1,2-c]pyrimidin-8-yl]sulfanyl}-3-chloropyridin-2-amine] was tested. Which IC50 did it give?
The IC50 was greater than 500 nM.

With `Nc1nccc(Sc2cnc(N3CCNCC3)n3ccnc23)c1Cl` [Compound 27, 3-chloro-4-{[5-(piperazin-1-yl)imidazo[1,2-c]pyrimidin-8-yl]sulfanyl}pyridin-2-amine] as the compound, how does the IC50 read?
The IC50 was greater than 500 nM.

Which IC50 does the source give for `Nc1nccc(Sc2cnc(N3CC[C@@H](N)C3)n3ccnc23)c1Cl` [Compound 28, 4-({5-[(3R)-3-aminopyrrolidin-1-yl]imidazo[1,2-c]pyrimidin-8-yl}sulfanyl)-3-chloropyridin-2-amine] here?
Its IC50 is greater than 500 nM.

Which IC50 does the source give for `Cc1nc(N2CCC3(CC2)CO[C@@H](C)[C@H]3N)n2ccnc2c1Sc1ccnc(N)c1Cl` [Compound 29, (3S,4S)-8-{8-[(2-amino-3-chloropyridin-4-yl)sulfanyl]-7-methylimidazo[1,2-c]pyrimidin-5-yl}-3-methyl-2-oxa-8-azaspiro[4.5]decan-4-amine] here?
Its IC50 is no more than 50 nM.

With `Cc1nc(N2CCC3(CC2)CO[C@@H](C)[C@H]3N)n2ccnc2c1-c1ccc2cn[nH]c2c1` [Compound 30, (3S,4S)-8-[8-(2H-indazol-6-yl)-7-methylimidazo[1,2-c]pyrimidin-5-yl]-3-methyl-2-oxa-8-azaspiro[4.5]decan-4-amine] as the compound, how does the IC50 read?
The IC50 was no more than 50 nM.

With `COc1ccc(-c2c(C)nc(N3CCC4(CC3)CO[C@@H](C)[C@H]4N)n3ccnc23)c(Cl)c1C#N` [Compound 31, 3-{5-[(3S,4S)-4-amino-3-methyl-2-oxa-8-azaspiro[4.5]decan-8-yl]-7-methylimidazo[1,2-c]pyrimidin-8-yl}-2-chloro-6-methoxybenzonitrile] as the compound, how does the IC50 read?
Its IC50 is no more than 50 nM.

How did the IC50 turn out when `Cc1nc(N2CCC3(CC2)CO[C@@H](C)[C@H]3N)n2ccnc2c1-c1cccc2nc[nH]c12` [Compound 32, (3S,4S)-8-[8-(1H-1,3-benzodiazol-4-yl)-7-methylimidazo[1,2-c]pyrimidin-5-yl]-3-methyl-2-oxa-8-azaspiro[4.5]decan-4-amine] was run?
Its IC50 is no more than 50 nM.

`Cc1nc(N2CCC3(CC2)CO[C@@H](C)[C@H]3N)n2ccnc2c1-c1ccc2[nH]cnc2c1` [Compound 33, (3S,4S)-8-[8-(1H-1,3-benzodiazol-6-yl)-7-methylimidazo[1,2-c]pyrimidin-5-yl]-3-methyl-2-oxa-8-azaspiro[4.5]decan-4-amine] was tested. Which IC50 did it give?
The IC50 was no more than 50 nM.

With `Cc1nc(N2CCC3(CC2)CO[C@@H](C)[C@H]3N)n2ccnc2c1-c1ccc2c(cnn2C)c1` [Compound 34, (3S,4S)-3-methyl-8-[7-methyl-8-(1-methyl-1H-indazol-5-yl)imidazo[1,2-c]pyrimidin-5-yl]-2-oxa-8-azaspiro[4.5]decan-4-amine] as the compound, how does the IC50 read?
The IC50 was no more than 50 nM.

Which IC50 does the source give for `Cc1nc(N2CCC3(CC2)CO[C@@H](C)[C@H]3N)n2ccnc2c1-c1cccc2cc[nH]c12` [Compound 35, (3S,4S)-8-[8-(1H-indol-7-yl)-7-methylimidazo[1,2-c]pyrimidin-5-yl]-3-methyl-2-oxa-8-azaspiro[4.5]decan-4-amine] here?
Its IC50 is no more than 50 nM.

Which IC50 does the source give for `Cc1nc(N2CCC3(CC2)CO[C@@H](C)[C@H]3N)n2ccnc2c1-c1cccc2cn[nH]c12` [Compound 36, (3S,4S)-8-[8-(2H-indazol-7-yl)-7-methylimidazo[1,2-c]pyrimidin-5-yl]-3-methyl-2-oxa-8-azaspiro[4.5]decan-4-amine] here?
The IC50 was no more than 50 nM.

`Cc1nc(N2CCC3(CC2)CO[C@@H](C)[C@H]3N)n2ccnc2c1-c1cc(Cl)c2cn[nH]c2c1` [Compound 37, (3S,4S)-8-[8-(4-chloro-2H-indazol-6-yl)-7-methylimidazo[1,2-c]pyrimidin-5-yl]-3-methyl-2-oxa-8-azaspiro[4.5]decan-4-amine] was tested. Which IC50 did it give?
Its IC50 is no more than 50 nM.

For `Cc1nc(N2CCC3(CC2)CO[C@@H](C)[C@H]3N)n2ccnc2c1-c1cc2[nH]ncc2cc1Cl` [Compound 38, (3S,4S)-8-[8-(5-chloro-2H-indazol-6-yl)-7-methylimidazo[1,2-c]pyrimidin-5-yl]-3-methyl-2-oxa-8-azaspiro[4.5]decan-4-amine], which IC50 is on record?
The IC50 was no more than 50 nM.

`Cc1nc(N2CCC3(CC2)CO[C@@H](C)[C@H]3N)n2ccnc2c1-c1ccc2[nH]ncc2c1` [Compound 39, (3S,4S)-8-[8-(2H-indazol-5-yl)-7-methylimidazo[1,2-c]pyrimidin-5-yl]-3-methyl-2-oxa-8-azaspiro[4.5]decan-4-amine] was tested. Which IC50 did it give?
The IC50 was no more than 50 nM.

`Cc1nc(N2CCC3(CC2)CO[C@@H](C)[C@H]3N)n2ccnc2c1-c1cc2ccccc2n1C` [Compound 40, (3S,4S)-3-methyl-8-[7-methyl-8-(1-methyl-1H-indol-2-yl)imidazo[1,2-c]pyrimidin-5-yl]-2-oxa-8-azaspiro[4.5]decan-4-amine] was tested. Which IC50 did it give?
Its IC50 is no more than 50 nM.

`Cc1nc(N2CCC3(CC2)CO[C@@H](C)[C@H]3N)n2ccnc2c1-c1ccc2nccnc2c1Cl` [Compound 41, (3S,4S)-8-[8-(5-chloroquinoxalin-6-yl)-7-methylimidazo[1,2-c]pyrimidin-5-yl]-3-methyl-2-oxa-8-azaspiro[4.5]decan-4-amine] was tested. Which IC50 did it give?
The IC50 was no more than 50 nM.

How did the IC50 turn out when `Cc1nc(N2CCC3(CC2)CO[C@@H](C)[C@H]3N)n2ccnc2c1-c1ccc2c(c1Cl)OCCC2` [Compound 43, (3S,4S)-8-[8-(8-chloro-3,4-dihydro-2H-1-benzopyran-7-yl)-7-methylimidazo[1,2-c]pyrimidin-5-yl]-3-methyl-2-oxa-8-azaspiro[4.5]decan-4-amine] was run?
Its IC50 is no more than 50 nM.

For `Cc1nc(N2CCC3(CC2)CO[C@@H](C)[C@H]3N)n2ccnc2c1-c1ccc2c(c1Cl)OCC2` [Compound 44, (3S,4S)-8-[8-(7-chloro-2,3-dihydro-1-benzofuran-6-yl)-7-methylimidazo[1,2-c]pyrimidin-5-yl]-3-methyl-2-oxa-8-azaspiro[4.5]decan-4-amine], which IC50 is on record?
Its IC50 is no more than 50 nM.

How did the IC50 turn out when `Cc1nc(N2CCC3(CC2)CO[C@@H](C)[C@H]3N)n2ccnc2c1-c1cccc(C#N)c1Cl` [Compound 45, 3-{5-[(3S,4S)-4-amino-3-methyl-2-oxa-8-azaspiro[4.5]decan-8-yl]-7-methylimidazo[1,2-c]pyrimidin-8-yl}-2-chlorobenzonitrile] was run?
Its IC50 is no more than 50 nM.

How did the IC50 turn out when `COc1c(C#N)ccc(-c2c(C)nc(N3CCC4(CC3)CO[C@@H](C)[C@H]4N)n3ccnc23)c1Cl` [Compound 46, 4-{5-[(3S,4S)-4-amino-3-methyl-2-oxa-8-azaspiro[4.5]decan-8-yl]-7-methylimidazo[1,2-c]pyrimidin-8-yl}-3-chloro-2-methoxybenzonitrile] was run?
The IC50 was no more than 50 nM.

`COc1nccc(-c2c(C)nc(N3CCC4(CC3)CO[C@@H](C)[C@H]4N)n3ccnc23)c1Cl` [Compound 47, (3S,4S)-8-[8-(3-chloro-2-methoxypyridin-4-yl)-7-methylimidazo[1,2-c]pyrimidin-5-yl]-3-methyl-2-oxa-8-azaspiro[4.5]decan-4-amine] was tested. Which IC50 did it give?
Its IC50 is no more than 50 nM.

How did the IC50 turn out when `Cc1nc(N2CCC3(CC2)CO[C@@H](C)[C@H]3N)n2ccnc2c1-c1ccc2ccnn2c1` [Compound 48, (3S,4S)-3-methyl-8-(7-methyl-8-pyrazolo[1,5-a]pyridin-6-yl-imidazo[1,2-c]pyrimidin-5-yl)-2-oxa-8-azaspiro[4.5]decan-4-amine] was run?
The IC50 was no more than 50 nM.

How did the IC50 turn out when `COc1cc(Cl)c(Cl)c(-c2c(C)nc(N3CCC4(CC3)CO[C@@H](C)[C@H]4N)n3ccnc23)c1` [Compound 49, (3S,4S)-8-[8-(2,3-dichloro-5-methoxyphenyl)-7-methylimidazo[1,2-c]pyrimidin-5-yl]-3-methyl-2-oxa-8-azaspiro[4.5]decan-4-amine] was run?
Its IC50 is no more than 50 nM.

For `Cc1nc(N2CCC3(CC2)CO[C@@H](C)[C@H]3N)n2ccnc2c1-c1cccc2c(Cl)c[nH]c12` [Compound 50, (3S,4S)-8-[8-(3-chloro-1H-indol-7-yl)-7-methylimidazo[1,2-c]pyrimidin-5-yl]-3-methyl-2-oxa-8-azaspiro[4.5]decan-4-amine], which IC50 is on record?
Its IC50 is no more than 50 nM.

`Cc1nc(N2CCC3(CC2)CO[C@@H](C)[C@H]3N)n2ccnc2c1-c1ccn2ccnc2c1` [Compound 51, (3S,4S)-8-(8-imidazo[1,2-a]pyridin-7-yl-7-methyl-imidazo[1,2-c]pyrimidin-5-yl)-3-methyl-2-oxa-8-azaspiro[4.5]decan-4-amine] was tested. Which IC50 did it give?
The IC50 was 50 to 500 nM.
